A short description of one series: Solubility. The class given is physicochemical. The source says:
(j) solubility: soluble in water, methanol and ethanol; insoluble in ethyl acetate and acetone;

In another series the test system is Komatsuna seeds. Nature of the series: Inhibitory effect on the germination of Komatsuna seeds. The note with it: Brassica rapa, 72 h; 28° C. for 3 days; read-out: minimum inhibitory concentration against the germination of Komatsuna seeds. The class given is in vivo, Brassica rapa (L) var. Komatsuna Hara. Here is the method:
Sterilized cotton was placed on the bottom of a test tube (10 mm×100 mm) to a height of about 5 mm, and the cotton was then soaked with 0.5 ml of either distilled water or of an aqueous solution containing various concentrations of Substance No. 51262. About 10 seeds of the plant Komatsuna [Brassica rapa (L) var. Komatsuna Hara] were placed into each test tube and allowed to stand at 28° C. for 3 days to determine the inhibitory concentration of Substance No. 51262, assessed by the presence or absence of germination.

The subject of series [1] is paddy field rice, soybeans, corn, cotton and purple nutsedge. The experiment in a line: Plant growth retardation. The class given is in vivo. The source says:
(§1) A plastic pot was filled with upland soil to provide a surface area of soil of 150 cm^2. Seeds of paddy field rice, soybeans corn and cotton were sowed, Tubers of the perennial weed, purple nutsedge (Cyperus rotundus) were then planted into each pot and the seeds and tubers were covered with the same soil. The pots were placed in a greenhouse for 10 days, after which aqueous solutions of Substance No. 51262 (prepared as described hereafter in Example 11) to the required concentrations were mixed with 0.03% v/v of the spreader Gramin S. 5 ml of the resulting solution were sprayed onto each pot. The growth of the resulting plants were compared after 2 weeks with a control which had not been so treated.

Another series relates to purple nutsedge. The experiment in a line: Plant growth retardation, purple nutsedge. The class given is in vivo, Cyperus rotundus. The following applies: 500 ppm; after 2 weeks vs untreated control.
Description: as §1

For a further series, the system named is mice. The following applies: mouse, in vivo, iv, 100 mg/kg. Here is the method: A solution of Substance No. 51262 was administered intravenously to mice in an amount of 100 mg/kg bodyweight.
The subject of the next series is various weeds. The experiment in a line: Herbicidal activity against weeds, pre- and post-emergence (summary statement). The class given is in vivo.

The values that follow come from patent US4952234A, “Imidazoledione compounds useful as herbicides” (Sankyo Company Limited, priority 1985, dated 1990).

As to `O=C1NC(=O)[C@@]2(N1)O[C@H](CO)[C@@H](O)[C@H]2O` [Substance No. 51262], the solubility entry in “Solubility” (acetone) is “insoluble”; in “Solubility” (ethanol), “soluble”; in the series “Solubility” (ethyl acetate) it was “insoluble”; in “Solubility” (methanol) it was “soluble”; in “Solubility” (water), “soluble”. In the series with Komatsuna seeds, the minimal effective concentration amounted to 3.13 µg/mL. For the same compound, in series [1] (125 ppm, all plants, after 2 weeks vs untreated control), the growth retardation result is recorded as “about 50%”. For the same compound, the plant growth retardation entry in series [1] (summary statement) is recorded as “can retard plant growth without killing the plants”. Further, the “growth inhibition of the shoot and rhizome” value with purple nutsedge is on record as “almost complete growth inhibition”. Further, the abnormalities observed entry with mice was “no abnormalities were detected”. Further, in the series on various weeds, the herbicidal activity entry is “excellent herbicidal activity”.
